Laboratory results taken from article PMC12040169 (PLOS Biology, 2025).

assay: in vitro; conditions: human, hela cells, % viability

Compound | viability at 28.5 h, 10 µM [%]
Clc1ccccc1-c1nccnc1OCCOc1ccccc1 [CBK107011] | 95.9
COc1ccc(-c2nccnc2OC)c(OC)c1 [CBK107039] | 114
c1ccc(COc2nccnc2-c2cccs2)nc1 [CBK107055] | 107
COc1cccc(Oc2nccnc2-c2cccs2)c1 [CBK107059] | 91.6
Cn1cc(-c2nccnc2OCc2ccccn2)cn1 [CBK107067] | 97.2
COc1nccnc1-c1cnn(C)c1 [CBK107069] | 89.6
COc1cccc(Oc2nccnc2-c2cnn(C)c2)c1 [CBK107071] | 98
Cn1cc(-c2nccnc2OC2CCCCC2)cn1 [CBK107072] | 99.7
Cn1cc(-c2nccnc2OCCn2cccc2)cn1 [CBK107079] | 88.6
Cn1cc(-c2nccnc2OCCOc2ccccc2)cn1 [CBK107080] | 94.9
O=C1c2ccccc2C(=O)N1CCOc1nccnc1-c1cnn(Cc2ccccc2)c1 [CBK107089] | 102
COc1nccnc1-c1cnn(Cc2ccccc2)c1 [CBK107090] | 101
c1ccc(Cn2cc(-c3nccnc3OC3CCCCC3)cn2)cc1 [CBK107092] | 93
c1ccc(Cn2cc(-c3nccnc3OCCn3ccnc3)cn2)cc1 [CBK107102] | 95.5
Clc1ccc(-c2nccnc2OCc2ccccn2)cc1Cl [CBK107108] | 94.7
CCOC(=O)c1ccc(-c2nccnc2Oc2cccc(OC)c2)cc1 [CBK107115] | 81
O=C(NCCCNC1CCc2[nH]c3ccccc3c2C1)c1cccc(Br)c1 (centres unmarked) [CBK107130T] | 86.9
CC1CCCCN1CCCNC(=O)c1ccc(-c2nc(-c3ccc(C#N)cc3)cnc2N)cc1 (centres unmarked) [CBK107139] | 111
CC(C)Nc1cc(SCc2ccc(F)cc2)ncn1 [CBK107158] | 93.9
CC(C)Nc1cc(SCc2cccc(C(F)(F)F)c2)ncn1 [CBK107161] | 88.2
Clc1ccc(CSc2nccnc2N2CCCC2)cc1 [CBK107177] | 95.9
FC(F)(F)c1cccc(CSc2cc(N3CCCC3)ncn2)c1 [CBK107184] | 91.1
FC(F)(F)c1nc2ccccc2nc1SC1CCCCC1 [CBK107205] | 97.2

Compound | viability at 28.5 h, 10 µM [%]
CNC(=O)CSc1nc2ccccc2nc1C(F)(F)F [CBK107206] | 95.9
C[C@@H]1CN[C@@H](C)CN1Cc1cc(NS(=O)(=O)c2ccccc2Cl)cc2ccoc12 [CBK107211T] | 98.6
Fc1ccc(CCN2CCCCC2c2cc3ccccc3[nH]2)cc1 (centres unmarked) [CBK107227T] | 89.6
O=C(c1[nH]nc(O)c1Cc1c(Cl)cccc1Cl)N1CCOCC1 [CBK107228] | 101
CCCc1n[nH]c(-c2cc(C(F)(F)F)ccc2F)c1C(=O)OCC [CBK107231] | 94.6
O=C(Nc1cccnc1)c1cc2cc(Cl)ccc2[nH]1 [CBK107261] | 88.7
O=C(NCc1ccccn1)c1cc2cc(Cl)ccc2[nH]1 [CBK107265] | 88.2
CN1CCN(C(=O)c2cc(C(C)(C)C)nn2Cc2ccc(Cl)cc2Cl)CC1 [CBK107285] | 109
CN(C)CCCNC(=O)c1cc(C(C)(C)C)nn1Cc1ccc(Cl)cc1Cl [CBK107286] | 102
CC(C)(C)c1cc(C(=O)NCc2ccccn2)n(Cc2ccc(Cl)cc2Cl)n1 [CBK107288] | 101
CC(C)(N)CNC(=O)c1cc(C(C)(C)C)nn1Cc1ccc(Cl)cc1Cl [CBK107296] | 95.6
CN(C)CCNC(=O)Cc1csc(-c2ccc(Cl)cc2)n1 [CBK107299] | 96.2
CN1CCN(C(=O)Cc2csc(-c3ccc(Cl)cc3)n2)CC1 [CBK107301] | 104
O=C(Cc1csc(-c2ccc(Cl)cc2)n1)NCCN1CCCC1 [CBK107306] | 90
O=C(Cc1csc(-c2ccc(Cl)cc2)n1)N1CCN(c2ccccn2)CC1 [CBK107310] | 97
CN(C)CCN(C)C(=O)c1cc2cc(OC(F)(F)F)ccc2[nH]1 [CBK107316] | 91.5
COc1ccc(Nc2cc(Cl)ccc2C(=O)N2CCN(c3ncccn3)CC2)cn1 [CBK107334] | 89.9
O=C(Nc1cccnc1)c1cnc2cc(Cl)ccc2c1O [CBK107353] | 82.6
CN(C)CC(C)(C)CNC(=O)c1cnc2cc(Cl)ccc2c1O [CBK107357] | 97
CC(C)(N)CNC(=O)c1cnc2cc(Cl)ccc2c1O [CBK107360] | 101
NCCNC(=O)c1cc2cc(OC(F)(F)F)ccc2[nH]1 [CBK107368] | 118
O=C(Nc1ccncc1)c1cc2cc(OC(F)(F)F)ccc2[nH]1 [CBK107369] | 89.3
CCCc1c(C(=O)N2CCN(C)CC2)cnn1-c1cc(Cl)cc(Cl)c1 [CBK107375] | 103

Compound | viability at 28.5 h, 10 µM [%]
CCCc1c(C(=O)NCC(C)(C)CN(C)C)cnn1-c1cc(Cl)cc(Cl)c1 [CBK107381] | 94.3
Cc1c(C(=O)Nc2ccncc2)nnn1-c1cccc(C(F)(F)F)c1 [CBK107390] | 102
Cc1c(C(=O)NCc2ccncc2)nnn1-c1cccc(C(F)(F)F)c1 [CBK107396] | 88.7
CN(C)CC(C)(C)CNC(=O)c1cc(C(=O)c2ccc(Cl)cc2Cl)c[nH]1 [CBK107416] | 94.8
O=C(c1c[nH]c(C(=O)N2CCN(c3ncccn3)CC2)c1)c1ccc(Cl)cc1Cl [CBK107418] | 89.4
CN1CCN(NC(=O)c2cc(C(=O)c3ccc(Cl)cc3Cl)c[nH]2)CC1 [CBK107420] | 91.4
CN1CCN(C(=O)c2cnc3cc(C(F)(F)F)ccc3c2O)CC1 [CBK107423] | 105
CN(C)CC(C)(C)CNC(=O)c1cnc2cc(C(F)(F)F)ccc2c1O [CBK107427] | 97.9
CC(C)(CN1CCOCC1)NC(=O)c1cnc2cc(C(F)(F)F)ccc2c1O [CBK107429] | 102
COc1ccc(Nc2cc(Cl)ccc2C(=O)Nc2ccncc2)cn1 [CBK107434] | 96.3
O=C(Nc1ccncc1)c1cnn(-c2ccc(Cl)cc2)c1C(F)(F)F [CBK107441] | 95.5
O=C(Nc1ccc(OC(F)F)cc1)Nc1c(Br)cnc2cccnc12 [CBK107632] | 87.8
O=C(Nc1ccc2oc(-c3ccccc3)nc2c1)C1CCCO1 (centres unmarked) [CBK107724] | 84.1
CCOc1cc(OCC)nc(Oc2ccc(C(=O)OC)cc2)n1 [CBK107733] | 87.2
Fc1ccc(OCCCN2CCC3(CC2)OCCc2c3[nH]c3ccccc23)cc1 [CBK107736] | 77
CNC(=O)CSc1nccnc1N1CCCC1 [CBK107748] | 93.6
Cc1ccc(Nc2cncc(-c3ccc(O)cc3)n2)cc1Cl [CBK107802] | 99.9
Oc1ccc(-c2cncc(Nc3ccc(Br)c(Cl)c3)n2)cc1 [CBK107806] | 89.4
CCC(=O)c1c(CC)n[nH]c1-c1c(Cl)cccc1Cl [CBK107819] | 96.1
COc1ccccc1NC(=O)c1[nH]nc(O)c1Cc1c(Cl)cccc1Cl [CBK107846] | 90.2
CC(C)Nc1nc2cc(Cl)c(Cl)cc2nc1SCCC(=O)O [CBK107860] | 96.1
O=C(O)CCSc1nccc(C(F)(F)F)n1 [CBK107864] | 87.5
O=C(O)CCSc1nc2ccccc2nc1C(F)(F)F [CBK107866] | 93.7

Compound | viability at 28.5 h, 10 µM [%]
CC1(OCCCO)SC(NC2CCCCCC2)=NC1=O (centres unmarked) [CBK107927] | 91.5
Oc1n[nH]c(-c2ccccc2Cl)c1Cc1c(Cl)cccc1Cl [CBK107935] | 84.1
Cc1ccc(C)c2[nH]c(=O)c(CN(CCN3CCOCC3)Cc3nnnn3C3CCCCC3)cc12 [CBK108116] | 85.3
COc1cc2cc(CN(Cc3cccnc3)C(=O)Nc3ccc(F)cc3)c(=O)[nH]c2cc1OC [CBK108193] | 93.3
CCc1cc2cc3c(cc2nc1SCC(=O)Nc1nc(C)c(C)s1)OCO3 [CBK108548] | 94.8
Cc1cccc2cc(CN(Cc3cccnc3)C(=O)Nc3ccccc3Cl)c(=O)[nH]c12 [CBK108869] | 97.9
Cc1ccc2cc(CN(Cc3ccc4c(c3)OCO4)Cc3nnnn3Cc3ccco3)c(=O)[nH]c2c1 [CBK108949] | 93.9
Cc1cc2cc(CN(CC3CCCO3)C(=O)C3CC3)c(Cl)nc2cc1C (centres unmarked) [CBK109881] | 101
O=C1c2ccccc2CN1c1ccc(Cl)cc1Cl [CBK109908] | 95
COc1ccc2c(c1OC)C(=O)N1c3ccccc3COC21 (centres unmarked) [CBK109960] | 103
O=C(O)c1cc(S(=O)(=O)Nc2ccccc2)ccc1O [CBK109969] | 83.2
CC(=O)OC(c1ccccc1)c1nc2ccccc2[nH]1 (centres unmarked) [CBK110141] | 97.1
O=C(O)CSc1cccc([N+](=O)[O-])c1 [CBK110160] | 101
O=C(Nc1ccccc1Cl)C1CCCN1S(=O)(=O)c1ccc(F)cc1 (centres unmarked) [CBK110161] | 89.1
Cc1ccc(NC(=O)C2CCCN2S(=O)(=O)c2ccc(F)cc2)cc1F (centres unmarked) [CBK110164] | 91.6
CNS(=O)(=O)c1cc(C(=O)O)c(OC)cc1OC [CBK110325] | 84.6
COC(=O)c1cc(C(=O)CSc2nc(N)cc(O)n2)ccc1O [CBK110407] | 92.2
COc1ccc(OC)c(C(=O)c2coc3ccc(OCC(=O)O)cc23)c1 [CBK111288] | 91.8
O=C1/C(=C/c2c(NCCCn3ccnc3)nc3ccccn3c2=O)SC(=S)N1CC1CCCO1 (centres unmarked) [CBK111310] | 99.3
CC1CCN(Cc2c(O)ccc3occ(C(=O)c4ccccc4)c23)CC1 [CBK111319] | 89.8
O=C(O)CSc1ccccc1[N+](=O)[O-] [CBK111324] | 86.8

same assay, conditions: human, hela cells, % viability, bulk resorufin, single well

Compound | viability at 28.5 h, 10 µM [%]
COc1ccc(CCNC(=O)c2cccc(-c3ccc4c(c3)COC3(CCNCC3)O4)c2)cc1OC [CBK110024] | 116
COc1cc(CNC(=O)c2cccc(-c3ccc4c(c3)COC3(CCNCC3)O4)c2)cc(OC)c1OC [CBK110087] | 87.8
